Experimental data as given in US10441687B2, “Wnt/beta-catenin inhibitor-eluting endovascular stent” (ALBERT EINSTEIN COLLEGE OF MEDICINE, INC., priority 2013, dated 2019).
Entries after “also recorded” stand apart in the source; their conditions may differ.

Key:
[1] = test system: p53; assay: p53 luciferase-based reporter assay in primary vascular SMCs; type: cell-based; conditions: control primary vascular SMCs (Adeno-GFP)
Procedure: FIG. 10. […] The activity of p53 was measured by a luciferase-based reporter assay.
(§1) In order to test the role of Wnt/beta-catenin signaling in vascular SMC biology, beta-catenin was specifically inactivated in SMCs, using a genetic approach in the mouse. […] After midgestation, dilated arterial vessels without an evident SMC layer were observed (FIG. 7). […] It was determined that increased p53 activity in SMCs partially explains the effects of inactivating beta-catenin (FIG. 9).

[2] = test system: Primary WT mouse aortic smooth muscle cells; assay: alamarBlue cell viability assay in primary mouse aortic smooth muscle cells; type: cell-based; conditions: 48 hours after treatment; 10% FBS/DMEM; increasing concentrations; p<0.0001 vs vehicle (0 uM)
Procedure: FIG. 11. Primary WT mouse aortic smooth muscle cells cultured in 10% FBS/DMEM medium were exposed to increasing concentrations of ICG-001 or vehicle (triplicates for each concentration). Cell viability was measured 48 hours after treatment by alamarBlue Assay. Cell viability (%, relative to vehicle treated cells, which were set as 100%) is plotted against the concentration of ICG-001 (uM).
as §1

p53 activity compared to vehicle (DMSO) ([1]; 10 uM XAV939, p<0.05) | SMILES | p53 activity ([1]; wild type, luciferase-based reporter, dose dependence) | Cell viability (%, relative to vehicle treated cells) [2]
significant increase in p53 activity | Oc1nc(-c2ccc(C(F)(F)F)cc2)nc2c1CSCC2 [XAV939] | induced p53 activity in control primary vascular SMCs (Adeno-GFP) in a dose dependent manner; also recorded: induced p53 activity in wild type vascular SMCs | 
 | O=C1[C@H](Cc2ccc(O)cc2)N2C(=O)CCN(C(=O)NCc3ccccc3)[C@H]2CN1Cc1cccc2ccccc12 [ICG-001] |  | significantly decreases viability of MASMCs in culture in a dose-response manner
